{"source": "paper PMC12348585", "about": "“Semi-Synthesis, Anti-Leukemia Activity, and Docking Study of Derivatives from 3α,24-Dihydroxylup-20(29)-en-28-Oic Acid” (Molecules, 2025)", "key": {"[1]": {"tested_on": "JURKAT cells", "conditions": "read-out: IC50 in JURKAT cells; cited from earlier work"}, "[2]": {"tested_on": "K562 cells", "design": "method as in PMID 32178533", "conditions": "cited from earlier work"}, "[3]": {"tested_on": "normal peripheral blood lymphocytes (PBLs)", "conditions": "cited from earlier work"}, "[4]": {"tested_on": "peripheral blood mononuclear cells (MNCs)", "experiment": "Cell viability assay in normal mononuclear cells", "assay_type": "cell-based, human", "experimental": "(§1) All compounds were dissolved in dimethyl sulfoxide (DMSO) at a concentration of 20 mg/mL. In all assays, culture medium containing 0.1% DMSO was used as the negative control, while dasatinib was included as the positive control. Normal mononuclear cells (MNCs) were included as the normal cell control. All experiments were performed in triplicate. Normal mononuclear cells (MNCs) were isolated from peripheral blood mononuclear cells obtained from healthy human donors. Cell collection was conducted in accordance with institutional guidelines, including written informed consent from each participant. All procedures were approved by Ethics and Scientific Committee of the Mexican Institute of Social Security (IMSS, ethical approval number: CNIC R-2021-785-025). The MNCs were purified using FicollPaque Plus (Pharmacia Biotech, Uppsala, Sweden) by centrifugation at 400× g for 30 min at room temperature, following the manufacturer’s protocol. The resulting cells were resuspended in RPMI-1640 medium supplemented with 10% fetal bovine serum (FBS) and counted using a hemocytometer after trypan blue staining, confirming a viability of 95% [56]. […] After incubation, both leukemic cells and MNCs were collected, washed with phosphate-buffered saline (PBS), and stained with DAPI (500 ng/mL) for 15 min in darkness, following the manufacturer’s instructions. Fluorescence was analyzed using a FACSVerse flow cytometer (BD Bioscience, San Jose, CA, USA). Flow cytometry data were analyzed using FlowJo^TM software (version 10.9). […] All experiments were performed in triplicate, and results were expressed as means ± standard errors of the means (SEMs). Statical analysis was performed using one-way analysis of variance (ANOVA), followed by Dunnett’s post hoc test to compare treated groups against the control."}, "[5]": {"tested_on": "leukemia cell lines (CCRF-CEM, REH, JURKAT, MOLT-4, THP-1)", "experiment": "Cell viability assay, all leukemia cell lines tested (summary statements)", "assay_type": "cell-based", "conditions": "48 h; summary over CCRF-CEM, REH, JURKAT, MOLT-4, THP-1", "experimental": "(§2) Cell lines were cultured in RPMI 1640 medium (Roswell Park Memorial Institute medium) supplemented with 10% fetal bovine serum (FBS) and 1% penicillin–streptomycin. Cultures were maintained at 37 °C in a humidified incubator with 5% CO2. All biological evaluations were performed using cell between passages 3 and 4. All compounds were dissolved in dimethyl sulfoxide (DMSO) at a concentration of 20 mg/mL. In all assays, culture medium containing 0.1% DMSO was used as the negative control, while dasatinib was included as the positive control. Normal mononuclear cells (MNCs) were included as the normal cell control. All experiments were performed in triplicate. Leukemic cell lines and normal mononuclear cells (MNCs) were used to evaluate the cytotoxicity of the compounds. Leukemic cells (1 × 10^5 cells/well) were cultured in 96-well plates and treated with increasing concentrations of compounds (0.02, 0.2, 2.0, and 20 µM) for 48 h. After incubation, both leukemic cells and MNCs were collected, washed with phosphate-buffered saline (PBS), and stained with DAPI (500 ng/mL) for 15 min in darkness, following the manufacturer’s instructions. Fluorescence was analyzed using a FACSVerse flow cytometer (BD Bioscience, San Jose, CA, USA). Flow cytometry data were analyzed using FlowJo^TM software (version 10.9). […] All experiments were performed in triplicate, and results were expressed as means ± standard errors of the means (SEMs). Statical analysis was performed using one-way analysis of variance (ANOVA), followed by Dunnett’s post hoc test to compare treated groups against the control."}, "[6]": {"tested_on": "JURKAT cell line", "experiment": "Apoptosis assay (annexin V-FITC/DAPI flow cytometry), JURKAT", "assay_type": "cell-based", "conditions": "positive control (dasatinib), 48 h", "experimental": "(§3) Since compound T1c was the only derivative that decreased the cell viability of leukemic cells (IC50 ≤ 20 µΜ), without affecting viability in normal MNC cells, its mode of action to exert cytotoxic effects was evaluated by flow cytometry techniques, determining the apoptotic effect at 48 h, using ½ IC50 and IC50 concentrations obtained in the viability assay in the different leukemia cell lines. Dasatinib at different concentrations was included as a positive control. Cell death was quantified by dual staining with annexin V-FITC and DAPI. Annexin V binds to externalized phosphatidylserine residues during early and late apoptosis, whereas DAPI penetrates membrane-compromised cells, distinguishing between late apoptotic and necrotic cells. The total percentage of apoptotic cells was calculated as the sum of early and late apoptotic populations. The results were normalized to 100% with respect to the negative control.\n(§4) Apoptosis induction was evaluated by flow cytometry. Cells (1 × 10^5 cells/well) were cultured in 96-well plates and exposed to the compounds at two concentrations (½ and 1 × IC50). After 48 h of treatment, the cells were washed with phosphate-buffered saline (PBS) and stained with annexin V-FITC (BD Bioscience) for 15 min in the dark. Following a second PBS wash, the cells were stained with DAPI (500 ng/mL) for 15 min in darkness. The stained samples were subsequently analyzed on a FACSVerse cytometer (BD Bioscience, San Jose, CA, USA)."}, "[7]": {"tested_on": "MOLT-4 cell line", "experiment": "Apoptosis assay (annexin V-FITC/DAPI flow cytometry), MOLT-4", "assay_type": "cell-based", "conditions": "MOLT-4, positive control (dasatinib), 48 h", "experimental": "as §3, §4"}, "[8]": {"tested_on": "THP-1", "experiment": "Cell viability assay (DAPI, flow cytometry), THP-1", "assay_type": "cell-based", "conditions": "Homo sapiens, THP-1; 48 h; mean ± SEM; N/A: not active", "experimental": "as §2"}, "[9]": {"tested_on": "JURKAT", "experiment": "Cell viability assay (DAPI, flow cytometry), JURKAT", "assay_type": "cell-based", "conditions": "for IC50: Homo sapiens, Jurkat, 48 h, mean ± SEM, N/A: not active", "experimental": "as §2"}, "[10]": {"tested_on": "THP-1 cell line", "experiment": "Apoptosis assay (annexin V-FITC/DAPI flow cytometry), THP-1", "assay_type": "cell-based", "conditions": "THP-1, positive control (dasatinib), 48 h", "experimental": "as §3, §4"}, "[11]": {"tested_on": "MOLT-4", "experiment": "Cell viability assay (DAPI, flow cytometry), MOLT-4", "assay_type": "cell-based", "conditions": "Homo sapiens, MOLT-4; 48 h; mean ± SEM; N/A: not active", "experimental": "as §2"}, "[12]": {"tested_on": "CCRF-CEM", "experiment": "Cell viability assay (DAPI, flow cytometry), CCRF-CEM", "assay_type": "cell-based", "conditions": "for IC50: Homo sapiens, CCRF-CEM, 48 h, mean ± SEM, N/A: not active", "experimental": "as §2"}, "[13]": {"tested_on": "REH", "experiment": "Cell viability assay (DAPI, flow cytometry), REH", "assay_type": "cell-based", "conditions": "for IC50: Homo sapiens, REH, 48 h, mean ± SEM, N/A: not active", "experimental": "as §2"}, "[14]": {"tested_on": "HL-60 cells", "design": "method as in PMID 36080390", "conditions": "cited from earlier work"}, "[15]": {"experiment": "Cell viability assay in normal mononuclear cells", "assay_type": "cell-based, human", "conditions": "human", "experimental": "as §1"}, "[16]": {"tested_on": "K562 cells", "design": "method as in PMID 36080390", "conditions": "cited from earlier work"}, "[17]": {"conditions": "ratio of IC50 in the MNC line over IC50 in the leukemia cell line"}}, "note": "Like-named read-outs stand apart in the source and are kept apart here.", "data": [{"compound": "C=C(C=O)[C@@H]1CC[C@]2(C)CC[C@]3(C)[C@H](CC[C@@H]4[C@@]5(C)CC[C@H](O)C(C)(C)[C@@H]5CC[C@]43C)[C@@H]12", "note": "[3β-hydroxylup-20(29)-en-30-al]", "values": [{"measurement": "IC50", "setting": "[1]", "result": "11.7 ± 1.06", "unit": "µM"}, {"measurement": "IC50", "setting": "[2]", "result": "19.5 ± 0.47", "unit": "µM"}, {"measurement": "reduction of viability of normal peripheral blood lymphocytes (PBLs)", "setting": "[3]", "result": 32.17, "unit": "%"}]}, {"compound": "C=C(C)C1CCC2(C(=O)O)CCC3(C)C(CCC4C5(C)CCC(OC(C)=O)C(C)(CO)C5CCC43C)C12", "note": "(stereo not drawn) [Compound T1e, 3α-acetyl-24-hydroxylup-20(29)-en-28-oic acid]", "values": [{"measurement": "IC50 MNCs", "setting": "[4]", "result": "no activity"}, {"measurement": "IC50 across all leukemia cell lines tested", "setting": "[5]", "result": "no activity"}]}, {"compound": "Cc1nc(Nc2ncc(C(=O)Nc3c(C)cccc3Cl)s2)cc(N2CCN(CCO)CC2)n1", "note": "[Dasatinib, dasatinib, reference compound]", "values": [{"measurement": "apoptosis rate (early + late)", "setting": "[6]", "result": "97.19 ± 0.11", "unit": "%"}, {"measurement": "early apoptotic cells", "setting": "[6]", "result": 0.59, "unit": "%"}, {"measurement": "late apoptotic cells", "setting": "[6]", "result": 96.60, "unit": "%"}, {"measurement": "early apoptotic cells", "setting": "[7]", "result": 1.40, "unit": "%"}, {"measurement": "late apoptotic cells", "setting": "[7]", "result": 94.74, "unit": "%"}, {"measurement": "apoptosis rate (early + late)", "setting": "[7]; normalized to negative control", "result": "96.13 ± 0.71", "unit": "%"}, {"measurement": "IC50", "setting": "[8]", "result": "4.66 ± 0.3", "unit": "µM"}, {"measurement": "IC50", "setting": "[9]", "result": "5.26 ± 0.5", "unit": "µM"}, {"measurement": "apoptosis rate (early + late)", "setting": "[10]", "result": "32.14 ± 3.15", "unit": "%"}, {"measurement": "early apoptotic cells", "setting": "[10]", "result": 7.21, "unit": "%"}, {"measurement": "late apoptotic cells", "setting": "[10]", "result": 24.93, "unit": "%"}, {"measurement": "IC50", "setting": "[11]", "result": "2.63 ± 0.1", "unit": "µM"}, {"measurement": "IC50", "setting": "[12]", "result": "10.8 ± 1.2", "unit": "µM"}, {"measurement": "IC50", "setting": "[13]", "result": "5.43 ± 0.3", "unit": "µM"}]}, {"compound": "C=C(C=O)[C@@H]1CC[C@]2(C(=O)O)CC[C@]3(C)C(CCC4[C@@]5(C)CC[C@@H](O)[C@@](C)(CO)C5CC[C@]43C)C12", "note": "(stereo partly drawn) [Compound T2, 3α,23-dihydroxy-30-oxolup-20(29)-en-28-oic acid]", "values": [{"measurement": "HL-60 cell viability", "setting": "[14]; at 102 µM", "result": "88.35 ± 3.85", "unit": "%"}, {"measurement": "HL-60 cell viability", "setting": "[14]; at 204 µM", "result": "85.15 ± 3.05", "unit": "%"}, {"measurement": "IC50 at 48 h", "setting": "[15]", "result": "> 200", "unit": "µM"}, {"measurement": "IC50", "setting": "[9]", "result": "> 20", "unit": "µM"}, {"measurement": "SI: selectivity index, JURKAT", "setting": "[9]; [17]", "result": 8.56}, {"measurement": "IC50", "setting": "[12]", "result": "> 20", "unit": "µM"}, {"measurement": "SI: selectivity index, CCRF-CEM", "setting": "[12]; [17]", "result": 19.48}, {"measurement": "K562 cell viability", "setting": "[16]; at 102 µM", "result": "88.6 ± 0.40", "unit": "%"}, {"measurement": "K562 cell viability", "setting": "[16]; at 204 µM", "result": "24.3 ± 1.95", "unit": "%"}, {"measurement": "IC50", "setting": "[13]", "result": "> 20", "unit": "µM"}, {"measurement": "SI: selectivity index, REH", "setting": "[13]; [17]", "result": 11.40}]}, {"compound": "C=C(CO)C1CCC2(C(=O)O)CCC3(C)C(CCC4C5(C)CCC(O)C(C)(CO)C5CCC43C)C12", "note": "(stereo not drawn) [Compound T1d, 3α,24,30-trihydroxylup-20(29)-en-28-oic acid]", "values": [{"measurement": "IC50 MNCs", "setting": "[4]", "result": "no activity"}, {"measurement": "IC50 across all leukemia cell lines tested", "setting": "[5]", "result": "no activity"}]}]}
